Reference: ChEMBL document CHEMBL1143546, “Novel heterocyclic glucocorticoids: in vitro profile and in vivo efficacy” (Bioorg Med Chem Lett, 2005)

What was measured:
Glucocorticoid receptor [1] = biological target: T1, Glucocorticoid receptor (Mus musculus, UniProt P06537); assay: GR-mediated transrepression of IL-6 in peritoneal exudate cells harvested from C57BI/6 mice; format: cell-based
T1 sequence (P06537 whole entry): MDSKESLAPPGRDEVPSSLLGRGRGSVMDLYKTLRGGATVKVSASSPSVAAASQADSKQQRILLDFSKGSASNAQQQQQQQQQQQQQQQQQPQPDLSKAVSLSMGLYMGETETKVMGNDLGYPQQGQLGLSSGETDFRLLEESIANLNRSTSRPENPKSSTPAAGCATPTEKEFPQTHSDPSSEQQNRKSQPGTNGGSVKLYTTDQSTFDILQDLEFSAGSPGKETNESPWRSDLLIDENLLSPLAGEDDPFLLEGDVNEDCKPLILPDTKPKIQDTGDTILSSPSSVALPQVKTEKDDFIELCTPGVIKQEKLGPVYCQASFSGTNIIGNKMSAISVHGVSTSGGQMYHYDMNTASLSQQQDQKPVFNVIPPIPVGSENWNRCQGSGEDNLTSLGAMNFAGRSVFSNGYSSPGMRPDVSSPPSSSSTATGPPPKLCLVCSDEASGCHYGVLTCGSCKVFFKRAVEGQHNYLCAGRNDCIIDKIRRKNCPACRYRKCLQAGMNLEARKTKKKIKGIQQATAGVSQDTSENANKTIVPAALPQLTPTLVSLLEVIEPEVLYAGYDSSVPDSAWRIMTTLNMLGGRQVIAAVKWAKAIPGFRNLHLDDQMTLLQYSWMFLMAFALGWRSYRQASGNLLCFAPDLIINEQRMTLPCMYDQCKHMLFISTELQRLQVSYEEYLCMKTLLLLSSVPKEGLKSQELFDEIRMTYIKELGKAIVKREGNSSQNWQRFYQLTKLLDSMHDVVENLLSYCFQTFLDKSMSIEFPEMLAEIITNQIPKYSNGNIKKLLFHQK

Glucocorticoid receptor [2] = biological target: T2, Glucocorticoid receptor (Homo sapiens, UniProt P04150); assay: Inhibition of human glucocorticoid receptor alpha by displacement of [3H]dexamethasone
T2 sequence (P04150 whole entry): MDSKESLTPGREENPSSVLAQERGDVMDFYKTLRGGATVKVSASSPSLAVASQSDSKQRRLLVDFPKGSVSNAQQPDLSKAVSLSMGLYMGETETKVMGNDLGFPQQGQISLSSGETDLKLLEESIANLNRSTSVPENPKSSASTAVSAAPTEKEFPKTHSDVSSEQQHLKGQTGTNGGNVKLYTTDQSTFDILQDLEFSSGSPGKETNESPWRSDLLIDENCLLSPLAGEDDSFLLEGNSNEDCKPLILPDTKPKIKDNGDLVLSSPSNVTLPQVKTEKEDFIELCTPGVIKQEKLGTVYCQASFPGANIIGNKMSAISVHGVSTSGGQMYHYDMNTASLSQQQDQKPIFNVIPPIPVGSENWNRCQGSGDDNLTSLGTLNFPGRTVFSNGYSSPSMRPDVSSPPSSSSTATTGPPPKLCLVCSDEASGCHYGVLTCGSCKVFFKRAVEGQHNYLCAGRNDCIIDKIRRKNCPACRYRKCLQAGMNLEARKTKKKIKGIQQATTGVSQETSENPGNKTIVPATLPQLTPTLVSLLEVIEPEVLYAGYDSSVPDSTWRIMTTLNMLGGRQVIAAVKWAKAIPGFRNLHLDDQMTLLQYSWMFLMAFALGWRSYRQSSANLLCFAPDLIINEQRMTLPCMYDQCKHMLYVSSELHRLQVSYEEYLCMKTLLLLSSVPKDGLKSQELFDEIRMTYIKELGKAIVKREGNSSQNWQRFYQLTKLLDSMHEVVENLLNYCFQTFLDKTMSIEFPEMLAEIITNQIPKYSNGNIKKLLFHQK

Glucocorticoid receptor [3] = biological target: T2, Glucocorticoid receptor; assay: GR-mediated transrepression of IL-6 in human A549 lung carcinoma cells; format: functional, cell-based
Glucocorticoid receptor [4] = biological target: T1, Glucocorticoid receptor; assay: Inhibition of mouse glutamine synthetase by GR-mediated transactivation in C2C12 cells; format: cell-based
Glucocorticoid receptor [5] = biological target: T2, Glucocorticoid receptor; assay: Inhibition of GR-mediated tyrosine amino transferase activity in human HepG2 cells; format: cell-based
[6] = biological target: T3, Glucocorticoid receptor (Mus musculus) (UniProt P06537); assay: Percent inhibition of LPS-induced tumor necrosis factor alpha release in mice relative to prednisolone at 3 mg/kg dose; format: organism-based; set-up: dose 3 mg/kg
T3 sequence (whole entry): T1 sequence (P06537 whole entry)

[7] = biological target: T3, Glucocorticoid receptor (Mus musculus); assay: Percent absolute inhibition of LPS-induced tumor necrosis factor alpha release in mice at 3 mg/kg dose; format: organism-based; set-up: dose 3 mg/kg

EC50 (Glucocorticoid receptor [5]) [nM]	Compound	EC50 (Glucocorticoid receptor [1]) [nM]	IC50 (Glucocorticoid receptor [2]) [nM]	EC50 (Glucocorticoid receptor [3]) [nM]	EC50 (Glucocorticoid receptor [4]) [nM]	inhibition [6] [%]	inhibition [7] [%]
–	C[C@]12Cc3cnn(-c4ccc(F)cc4)c3C=C1CCC[C@@H]2[C@@H](O)c1ccncc1	215	23.2	38	–	–	–
–	C[C@]12Cc3cnn(-c4ccc(F)cc4)c3C=C1CCC[C@@H]2[C@@H](O)c1ccoc1	45	2.9	2.7	–	–	–
–	C[C@]12Cc3cnn(-c4ccc(F)cc4)c3C=C1CCC[C@@H]2[C@](C)(O)c1ccsc1	5.2	–	0.96	8.3	–	–
–	C[C@]12Cc3cnn(-c4ccc(F)cc4)c3C=C1CCC[C@@H]2[C@@H](O)Cc1ccc(F)cc1	3.7	4.6	–	17	–	–
1070	C[C@]12Cc3cnn(-c4ccc(F)cc4)c3C=C1CCC[C@@H]2[C@@H](O)c1ccc(Cl)s1	17	7.6	13	34	–	–
–	C[C@]12Cc3cnn(-c4ccc(F)cc4)c3C=C1CCC[C@@H]2[C@@H](O)c1cccs1	21	7.1	37	–	–	–
356	C[C@]12Cc3cnn(-c4ccc(F)cc4)c3C=C1CCC[C@@H]2[C@H](O)c1csc2ccccc12	11	1.5	6	3	–	–
–	C[C@]12C=CC(=O)C=C1CC[C@@H]1[C@@H]2[C@@H](O)C[C@@]2(C)[C@H]1CC[C@]2(O)C(=O)CO [PREDNISOLONE]	5.7	–	–	–	100	71
–	C[C@]12Cc3cnn(-c4ccc(F)cc4)c3C=C1CCC[C@@H]2[C@@H](O)c1ccc(F)nc1	12	13.6	13	260	–	–
–	C[C@]12Cc3cnn(-c4ccc(F)cc4)c3C=C1CCC[C@@H]2[C@@H](O)c1cc2ccccc2s1	–	–	19	1210	–	–
–	COc1cc([C@H](O)[C@H]2CCCC3=Cc4c(cnn4-c4ccc(F)cc4)C[C@@]32C)cc(F)c1F	15	–	–	–	–	–
–	C[C@]12Cc3cnn(-c4ccc(F)cc4)c3C=C1CCC[C@@H]2[C@@H](O)c1cc(Cl)sc1Cl	120	10.2	31	–	–	–
–	C[C@]12Cc3cnn(-c4ccc(F)cc4)c3C=C1CCC[C@@H]2[C@@H](O)c1csc2ccccc12	54	5.1	18	–	–	–

Compound	EC50 (Glucocorticoid receptor [5]) [nM]	EC50 (Glucocorticoid receptor [1]) [nM]	IC50 (Glucocorticoid receptor [2]) [nM]	EC50 (Glucocorticoid receptor [3]) [nM]	EC50 (Glucocorticoid receptor [4]) [nM]	inhibition [6] [%]	inhibition [7] [%]
C[C@]12Cc3cnn(-c4ccc(F)cc4)c3C=C1CCC[C@@H]2[C@H](O)c1ccc(F)nc1	4440	5	9.1	21	23	–	–
